# Read-outs that look alike come from different tables or passages of the source.
# Key:
# [1] = other bond
# [2] = the molecule shown is the open-chain precursor; other bond; 16-membered ring; TfOH; MeNO2; 13.4 mM; 25.0 °C
# [3] = far-UV circular dichroism (CD) spectra with secondary structure estimated by deconvolution (α-helicity of MSP vs linear peptide); type: physicochemical; conditions: 25° C.
# Protocol: To examine the α-helicity of the macrocycle stabilized peptides prepared according to the methods of the present invention, the far-UV circular dichrosim (CD) spectra of linear and macrocyclic peptides were measured and compared. Linear peptide of Example 93 and MSP of Example 93 as dry powder were prepared. A sample of each was weighed into a fresh 20 mL glass vial, and dissolved in anhydrous methanol (B&J), with vortexing for ˜1 min, to yield solutions with concentrations of 200 μM. The concentrations were based on the observed mass of peptide and the respective formula weights. The solutions were transferred to 1.8 mL polypropylene tubes, and centrifuged in a table top microcentrifuge for 5 min at rt and 14,000 rpm to pellet any insoluble material. The supernatants were transferred to clean 1.8 mL tubes for preparing final samples for analysis by circular dichroism (CD). Two sets of samples were prepared, one in 100% methanol at 200 μM peptide, the other in 50% aqueous methanol at 100 μM peptide prepared by adding an equal volume of ddH2O to stock methanol solutions.
# Samples were transferred to clean 1 mm quartz cuvettes and CD analysis performed in a JASCO J=815 instrument, and temperature maintained at 25° C. Each peptide sample was scanned from 200-450 nm, using a bandwidth of 1.00 nm, standard sensitivity, data pitch of 0.1 nm, digital integration time of 4.0 sec, a scan speed of 20 nm/min, and 6 acquisitions averaged per sample. Blank solvent samples (100% methanol and 50% aqueous methanol) were recorded simultaneously and subtracted from the peptide spectra prior to final analysis. For calculation of mean residue molar ellipticity (Θ^MRW), the peptide concentration was multiplied by 12 to reflect the number of peptide residues in each molecule. Following blank corrections, the CD data for each peptide in each solvent was corrected for total mean residue ellipticity, and the secondary structure composition estimated by deconvolution using CDPRO module within the JASCO software. Three different algorithms were used for convolution (SELCON, CDSSTR and CONTIN), using the data obtained from 200-240 nm and a 56 protein reference data set. Each algorithm yielded similar distribution of secondary structure elements, and the final results reported as the mean and standard deviation from the three deconvolutions.
# The deconvolution algorithms yield secondary structural elements of two types of α-helical structure, two types of […] structure, β-turn structure, and unstructured or random structure. The results reflect the average of summed α-helical forms, summed β-strand forms, the β-turn and unstructured forms from the three algorithms for the peptides in 100% methanol. The overlaid spectra illustrate the difference in signal in the far uv-region (200-240 nm) for the two related peptides in 100% methanol.
# [4] = from (5-(hydroxymethyl)thiazol-2-yl)-Val(D/L)-Gly-Tyr-NH2?, 16-membered ring, TfOH, MeNO2, 25.0 °C, 2 steps
# [5] = from (5-(hydroxymethyl)thiazol-2-yl)-Val(D/L)-Ala-Ala-Tyr-NH2?, 19-membered ring, TfOH, MeNO2, 11.0 mM, 25.0 °C, 2 steps
# [6] = from (5-(hydroxymethyl)thiazol-2-yl)-Val(D/L)-Ala-Ala-Ala-Ala-Tyr-NH2?, 25-membered ring, TfOH, MeNO2, 6.0 mM, 25.0 °C, 2 steps
# [7] = 50% aqueous methanol, 100 μM peptide
# [8] = 100% methanol, 200 μM peptide, CD 200-240 nm, mean of three deconvolution algorithms
molecule,measurement,setting,value
CC[C@H](C)[C@@H]1NC(=O)[C@@H](NC(=O)OCC2c3ccccc3-c3ccccc32)Cc2ccc(OC)c(c2)CC2=CN=C(NCC(=O)NC[C@@H](C(=O)O)NC(=O)[C@H](CCC(=O)OC)NC(=O)CNC1=O)S2 [Macrocycle],"ring closure, yield after HPLC","[1]; from (5S,8S,14S,17S)-8-((S)-sec-butyl)-1-(9H-fluoren-9-yl)-17-((2-((5-(hydroxymethyl)thiazol-2-yl)amino)acetamido)methyl)-14-(3-methoxy-3-oxopropyl)-5-(4-methoxybenzyl)-3,6,9,12,15-pentaoxo-2-oxa-4,7,10,13,16-pentaazaoctadecan-18-oic acid, 26-membered ring, TfOH, NMM quench, nitromethane, 5.57 mM, 25.0 °C",40.3%
CC(C)[C@H]1NC2=NC=C(Cc3cc(ccc3O)C[C@@H](C(N)=O)NC(=O)CNC1=O)S2 [Thia-V(d)GY],"ring closure, yield after HPLC",[1]; [4],22%
CC(C)[C@@H]1NC2=NC=C(Cc3cc(ccc3O)C[C@@H](C(N)=O)NC(=O)CNC(=O)[C@H](C)NC(=O)[C@H](C)NC1=O)S2 [Thia-V(l)AAGY (SEQ ID NO. 13) Macrocycle],"ring closure, yield after HPLC","[1]; from (5-(hydroxymethyl)thiazol-2-yl)-Val-Ala-Ala-Gly-Tyr-NH2?, 22-membered ring, TfOH, MeNO2, 6.45 mM, 25.0 °C, 2 steps",52.7%
CC(C)[C@H]1NC2=NC=C(Cc3cc(ccc3O)C[C@@H](C(N)=O)NC(=O)[C@H](C)NC(=O)[C@H](C)NC1=O)S2 [Thia-V(l)AAY (SEQ ID NO. 11)],"ring closure, yield after HPLC",[1]; [5],11%
CC(C)[C@H]1NC2=NC=C(Cc3cc(ccc3O)C[C@@H](C(N)=O)NC(=O)CNC1=O)S2 [Thia-V(l)GY],"ring closure, yield after HPLC",[1]; [4],19%
CC(C)[C@@H]1NC2=NC=C(Cc3cc(ccc3O)C[C@@H](C(N)=O)NC(=O)[C@H](C)NC(=O)[C@H](C)NC(=O)[C@H](C)NC(=O)[C@H](C)NC1=O)S2 [Thia-V(d)AAAAY],"ring closure, yield after HPLC",[1]; [6],22.3%
C[C@@H]1NC(=O)CNC2=NC=C(Cc3cc(ccc3O)C[C@@H](C(N)=O)NC(=O)[C@H](C)NC1=O)S2 [“Thia-G-A-A-Y” (SEQ ID NO. 9) Macrocycle],"ring closure, yield after HPLC","[1]; from (5-(hydroxymethyl)thiazol-2-yl)-Gly-Ala-Ala-Tyr-NH2?, 19-membered ring, TfOH, MeNO2, 14.7 mM, 25.0 °C, 2 steps",70.2%
CC(C)[C@@H]1NC2=NC=C(Cc3cc(ccc3O)C[C@@H](C(N)=O)NC(=O)[C@H](C)NC(=O)[C@H](C)NC(=O)[C@H](C)NC(=O)[C@H](C)NC1=O)S2 [Thia-V(l)AAAAY (SEQ ID NO. 12)],"ring closure, yield after HPLC",[1]; [6],35.2%
C[C@@H]1NC(=O)CNC2=NC=C(Cc3cc(ccc3O)C[C@@H](C(=O)NCC(=O)O)NC(=O)[C@H](C)NC(=O)[C@H](C)NC1=O)S2 [Macrocycle],"ring closure, yield after HPLC","[1]; from (5-(hydroxymethyl)thiazol-2-yl)-Gly-Ala-Ala-Ala-Tyr-Gly-OtBu?, 22-membered ring, TfOH, NMM quench, nitroethane, 5.7 mM, 25.0 °C",35%
C[C@@H]1NC(=O)CNC2=NC=C(Cc3cc(ccc3O)C[C@@H](C(=O)NCC(=O)O)NC(=O)[C@H](C)NC(=O)[C@H](C)NC1=O)S2,"ring closure, yield after HPLC","[1]; from (5-(hydroxymethyl)thiazol-2-yl)-Gly-Ala-Ala-Ala-Tyr-Gly-OtBu?, 22-membered ring, TfOH, NMM quench, nitromethane, 11.8 mM, 25.0 °C",42%
C[C@@H]1NC(=O)[C@H](C)NC(=O)[C@H](Cc2ccccc2)NC(=O)CNC2=NC=C(Cc3cc(ccc3O)C[C@@H](C(N)=O)NC1=O)S2 [Thia-G-F-A-A-Y—CONH2 (SEQ ID NO. 10) macrocycle],"ring closure, yield after HPLC","[1]; from (5-(hydroxymethyl)thiazol-2-yl)-Gly-Phe-Ala-Ala-Tyr-NH2?, 22-membered ring, TfOH, MeNO2, 11.5 mM, 25.0 °C, 2 steps",68.5%
C[C@@H]1NC(=O)[C@H](C)NC(=O)[C@H](C)NC(=O)[C@@H](N)Cc2ccc(O)c(c2)CC2=CN=C(NCCCNC1=O)S2 [Macrocycle],"ring closure, yield after HPLC","[1]; from Boc-Tyr-Ala-Ala-Ala-NH-(CH2)3-NH-[5-(hydroxymethyl)thiazol-2-yl]?, 24-membered ring, TfOH, NMM quench, nitromethane, 9.9 mM",15.4%
CC(C)[C@H]1NC2=NC=C(Cc3cc(ccc3O)C[C@@H](C(N)=O)NC(=O)[C@H](C)NC(=O)[C@H](C)NC1=O)S2 [Thia-V(d)AAY],"ring closure, yield after HPLC",[1]; [5],16.4%
CC(C)[C@H]1NC2=NC=C(Cc3cc(ccc3O)C[C@@H](C(N)=O)NC(=O)CNC(=O)[C@H](C)NC(=O)[C@H](C)NC1=O)S2 [Thia-V(d)AAGY Macrocycle],"ring closure, yield after HPLC","[1]; from (5-(hydroxymethyl)thiazol-2-yl)-dVal-Ala-Ala-Gly-Tyr-NH2?, 22-membered ring, TfOH, MeNO2, 6.83 mM, 25.0 °C, 2 steps",38.7%
(5-(hydroxymethyl)thiazol-2-yl)-Gly-Gly-Tyr-NH2?,"ring closure, conversion",[2],60%
C[C@H](NC(=O)[C@H](C)NC(=O)CNC(=O)[C@@H]1Cc2ccc(O)c(c2)CC2=CN=C(NCC(=O)N[C@@H](C)C(=O)N[C@@H](C)C(=O)N[C@@H](C)C(=O)N1)S2)C(N)=O [Macrocycle],"ring closure, yield after HPLC","[1]; from (5-(hydroxymethyl)thiazol-2-yl)-Gly-Ala-Ala-Ala-Tyr-Gly-Ala-Ala-NH2?, 22-membered ring, TfOH, NMM quench, nitroethane/TfOH 1:1, 5.4 mM, 25.0 °C",62%
"C[C@H](NC(=O)OCC1c2ccccc2-c2ccccc21)C(=O)N[C@@H](C)C(=O)NNC(=O)[C@@H](C)[C@@H](Cc1ccc(O)cc1)C(=O)N[C@@H](C)C(=O)N[C@@H](C)C(=O)NCC(=O)N[C@H]1Cc2ccc(O)c(c2)CC2=CN=C(NCCCNC(=O)[C@H](C)NC(=O)[C@H](C)NC(=O)[C@H](C)NC1=O)S2 [Example 91, C-terminal Macrocycle Peptide]",unstructured conformation,[3]; [7],32%
same,α-helical structure,[3]; [7],23%
same,β-structure,[3]; [7],45%
same,unstructured conformation,[3]; [8],27%
same,α-helical conformation,[3]; [8],53%
same,β-structure (β-strand and β-turn conformation),[3]; [8],22%
COc1ccc2cc1CC1=CN=C(NCC(=O)N[C@@H](C)C(=O)NCC(=O)NCC(=O)N3C[C@H](O)[C@@H](O)[C@H]3C2)S1 [Macrocycle Anisomycin-GGAG-Thia],"ring closure, yield after HPLC","[1]; from (S)-N-(2-(2-((2R,3S,4S)-3,4-Dihydroxy-2-(4-methoxybenzyl)pyrrolidin-1-yl)-2-oxoethylamino)-2-oxoethyl)-2-(2-(5-(hydroxymethyl)thiazol-2-ylamino)acetamido)propanamide?, 22-membered ring",53.2%
C[C@@H]1NC(=O)CNC2=NC=C(Cc3cc(ccc3O)C[C@@H](C(N)=O)NC1=O)S2 [“Thia-G-A-Y” Macrocycle],"ring closure, yield after HPLC","[1]; from (5-(hydroxymethyl)thiazol-2-yl)-Gly-Ala-Tyr-NH2, 16-membered ring, TfOH, MeNO2, 7.0 mM, 25.0 °C",56%

# From patent publication US9169295B2, “Macrocycles and macrocycle stabilized peptides” (Bristol-Myers Squibb Company, priority 2010, dated 2015)
